# Measurements reported in patent US10189841B2, “Purinones as ubiquitin-specific protease 1 inhibitors” (Forma Therapeutics, Inc., priority 2015, dated 2019).
# pIC50: −log10 of the molar value.
# Target: USP1 (construct USP1 (I-785, GG670, 671AA)/UAF1 (I-677)-Flag) (Homo sapiens (Human), UniProt O94782, G670A/G671A)
# Assay: Ubiquitin-Rhodamine 110 assay for USP1 activity
# Format: biochemical
# Settings: USP1/UAF1 25 pM, Ub-Rh110 25 nM, 30 min preincubation
# Outline: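 Ub-Rh110 (25 nM, ≪Km) cleavage read at ex 485/em 535 in Tris pH 8.0, CaCl2, GSH, Prionex, Triton X-100. The screen used 10 µM compound, 100 pM USP1/UAF1 and 45 min at RT.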
# Chain of USP1 (construct USP1 (I-785, GG670, 671AA)/UAF1 (I-677)-Flag) (O94782 whole entry G670A/G671A): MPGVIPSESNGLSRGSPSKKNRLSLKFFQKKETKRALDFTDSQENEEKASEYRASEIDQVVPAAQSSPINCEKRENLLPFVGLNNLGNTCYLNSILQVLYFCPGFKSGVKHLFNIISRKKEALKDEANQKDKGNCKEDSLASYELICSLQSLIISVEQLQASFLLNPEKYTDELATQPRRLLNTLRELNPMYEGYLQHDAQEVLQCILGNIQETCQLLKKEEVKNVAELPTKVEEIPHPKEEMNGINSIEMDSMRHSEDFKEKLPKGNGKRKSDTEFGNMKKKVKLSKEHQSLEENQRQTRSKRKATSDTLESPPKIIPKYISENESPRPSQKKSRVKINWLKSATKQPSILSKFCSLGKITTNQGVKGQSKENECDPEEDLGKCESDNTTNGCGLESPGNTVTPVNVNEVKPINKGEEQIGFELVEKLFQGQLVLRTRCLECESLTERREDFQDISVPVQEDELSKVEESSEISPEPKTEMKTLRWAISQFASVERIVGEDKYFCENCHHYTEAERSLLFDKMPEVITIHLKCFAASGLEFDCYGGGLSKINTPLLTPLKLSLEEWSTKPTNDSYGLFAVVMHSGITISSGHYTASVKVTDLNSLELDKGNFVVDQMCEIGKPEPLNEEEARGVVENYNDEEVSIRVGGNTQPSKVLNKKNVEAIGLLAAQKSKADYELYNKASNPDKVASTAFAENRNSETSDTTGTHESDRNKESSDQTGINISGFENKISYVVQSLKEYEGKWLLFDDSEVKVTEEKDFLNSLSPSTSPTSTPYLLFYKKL
# Chain of USP1 (construct USP1 (I-785, GG670, 671AA)/UAF1 (I-677)-Flag) (Q8TAF3 whole entry partner): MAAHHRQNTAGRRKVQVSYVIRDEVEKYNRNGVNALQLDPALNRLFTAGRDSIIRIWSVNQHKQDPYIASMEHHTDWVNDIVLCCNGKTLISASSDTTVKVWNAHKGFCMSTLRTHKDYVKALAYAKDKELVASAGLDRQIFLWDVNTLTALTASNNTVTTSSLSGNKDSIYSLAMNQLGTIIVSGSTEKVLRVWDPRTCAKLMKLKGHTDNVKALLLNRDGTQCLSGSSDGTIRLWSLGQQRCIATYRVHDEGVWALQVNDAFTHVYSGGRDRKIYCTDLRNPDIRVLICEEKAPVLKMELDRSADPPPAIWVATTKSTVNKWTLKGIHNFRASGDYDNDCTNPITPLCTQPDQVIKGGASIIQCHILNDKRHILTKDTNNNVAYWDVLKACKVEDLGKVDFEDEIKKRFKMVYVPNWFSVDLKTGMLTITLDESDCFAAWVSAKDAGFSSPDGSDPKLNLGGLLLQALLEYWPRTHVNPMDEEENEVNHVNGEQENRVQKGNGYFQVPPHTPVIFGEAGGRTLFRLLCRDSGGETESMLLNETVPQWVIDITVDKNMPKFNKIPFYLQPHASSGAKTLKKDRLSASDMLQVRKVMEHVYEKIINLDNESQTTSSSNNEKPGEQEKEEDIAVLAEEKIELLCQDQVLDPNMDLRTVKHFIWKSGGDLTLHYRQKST
row,SMILES,pIC50
1,"CC(C)c1ncc(F)cc1-c1ncc2c(n1)n(Cc1ccc(-c3nc(C(F)(F)F)cn3C)cc1)c(=O)n2C [Compound I-69, 2-(5-fluoro-2-isopropylpyridin-3-yl)-7-methyl-9-(4-(1-methyl-4-(trifluoromethyl)-1H-imidazol-2-yl)benzyl)-7,9-dihydro-8H-purin-8-one]",> 7.30
2,"Cn1cc(C(F)(F)F)nc1-c1ccc(Cn2c(=O)n(C)c3cnc(-c4cccnc4C4CC4)nc32)cc1 [Compound I-71, 2-(2-cyclopropylpyridin-3-yl)-7-methyl-9-(4-(1-methyl-4-(trifluoromethyl)-1H-imidazol-2-yl)benzyl)-7,9-dihydro-8H-purin-8-one]",> 7.30
3,"Cn1cc(C(F)(F)F)nc1-c1ccc(Cn2c(=O)n(C)c3cnc(-c4cccnc4C(F)F)nc32)cc1 [Compound I-72, 2-(2-(difluoromethyl)pyridin-3-yl)-7-methyl-9-(4-(1-methyl-4-(trifluoromethyl)-1H-imidazol-2-yl)benzyl)-7,9-dihydro-8H-purin-8-one]",5.70 to 6.70
4,"COc1ccc(-c2ncc3[nH]c(=O)n(Cc4ccc(-c5nc(C(F)(F)F)cn5C)cc4)c3n2)c(C)n1 [Compound I-73, 2-(6-methoxy-2-methylpyridin-3-yl)-9-(4-(1-methyl-4-(trifluoromethyl)-1H-imidazol-2-yl)benzyl)-7,9-dihydro-8H-purin-8-one]",> 7.30
5,"CC(C)Oc1ccc(-c2ncc3[nH]c(=O)n(Cc4ccc(-c5nc(C(F)(F)F)cn5C)cc4)c3n2)c(F)n1 [Compound I-74, 2-(2-fluoro-6-isopropoxypyridin-3-yl)-9-(4-(1-methyl-4-(trifluoromethyl)-1H-imidazol-2-yl)benzyl)-7,9-dihydro-8H-purin-8-one]",5.70 to 6.70
6,"COc1ccc(-c2ncc3[nH]c(=O)n(Cc4ccc(-c5nc(C(F)(F)F)cn5C)cc4)c3n2)c(F)n1 [Compound I-75, 2-(2-fluoro-6-methoxypyridin-3-yl)-9-(4-(1-methyl-4-(trifluoromethyl)-1H-imidazol-2-yl)benzyl)-7,9-dihydro-8H-purin-8-one]",6.70 to 7.30
7,"CC(C)c1ncccc1-c1ncc2[nH]c(=O)n(Cc3ccc(-c4nc(C(F)(F)F)cn4C4CC4)cc3)c2n1 [Compound I-76, 9-(4-(1-cyclopropyl-4-(trifluoromethyl)-1H-imidazol-2-yl)benzyl)-2-(2-isopropylpyridin-3-yl)-7,9-dihydro-8H-purin-8-one]",> 7.30
8,"CC(C)c1ncccc1-c1ncc2[nH]c(=O)n(Cc3ccc(-n4nc(C(F)(F)F)cc4N4CCOCC4)cc3)c2n1 [Compound I-77, 2-(2-isopropylpyridin-3-yl)-9-(4-(5-morpholino-3-(trifluoromethyl)-1H-pyrazol-1-yl)benzyl)-7,9-dihydro-8H-purin-8-one]",> 7.30
9,"COc1cc(C)n(-c2ccc(Cn3c(=O)[nH]c4cnc(-c5cccnc5C(C)C)nc43)cc2)n1 [Compound I-78, 2-(2-isopropylpyridin-3-yl)-9-(4-(3-methoxy-5-methyl-1H-pyrazol-1-yl)benzyl)-7,9-dihydro-8H-purin-8-one]",> 7.30
10,"CC(C)c1ncccc1-c1ncc2[nH]c(=O)n([C@H](C)c3ccc(-c4nc(C(F)(F)F)cn4C)cc3)c2n1 [Compound I-79, (R)-2-(2-isopropylpyridin-3-yl)-9-(1-(4-(1-methyl-4-(trifluoromethyl)-1H-imidazol-2-yl)phenyl)ethyl)-7,9-dihydro-8H-purin-8-one]",> 7.30
11,"CC(C)c1ncccc1-c1ncc2[nH]c(=O)n([C@@H](C)c3ccc(-c4nc(C(F)(F)F)cn4C)cc3)c2n1 [Compound I-80, (S)-2-(2-isopropylpyridin-3-yl)-9-(1-(4-(1-methyl-4-(trifluoromethyl)-1H-imidazol-2-yl)phenyl)ethyl)-7,9-dihydro-8H-purin-8-one]",> 7.30
12,"CC(C)c1ncccc1-c1ncc2[nH]c(=O)n(Cc3cc(F)c(-c4nc(C(F)(F)F)cn4C)c(F)c3)c2n1 [Compound I-82, 9-(3,5-difluoro-4-(1-methyl-4-(trifluoromethyl)-1H-imidazol-2-yl)benzyl)-2-(2-isopropylpyridin-3-yl)-7,9-dihydro-8H-purin-8-one]",> 7.30
13,"CC(C)c1ncccc1-c1ncc2[nH]c(=O)n(Cc3ccc(-c4nc(C(F)(F)F)cn4C)c(F)c3)c2n1 [Compound I-83, 9-(3-fluoro-4-(1-methyl-4-(trifluoromethyl)-1H-imidazol-2-yl)benzyl)-2-(2-isopropylpyridin-3-yl)-7,9-dihydro-8H-purin-8-one]",> 7.30
14,"CC(C)c1ncccc1-c1ncc2[nH]c(=O)n(Cc3ccc(-c4nc(C(F)(F)F)cn4C)cc3F)c2n1 [Compound I-84, 9-(2-fluoro-4-(1-methyl-4-(trifluoromethyl)-1H-imidazol-2-yl)benzyl)-2-(2-isopropylpyridin-3-yl)-7,9-dihydro-8H-purin-8-one]",> 7.30
15,"CC(C)c1ncccc1-c1ncc2[nH]c(=O)n(Cc3c(F)cc(-c4nc(C(F)(F)F)cn4C)cc3F)c2n1 [Compound I-85, 9-(2,6-difluoro-4-(1-methyl-4-(trifluoromethyl)-1H-imidazol-2-yl)benzyl)-2-(2-isopropylpyridin-3-yl)-7,9-dihydro-8H-purin-8-one]",6.70 to 7.30
16,"Cn1cc(C(F)(F)F)nc1-c1ccc(Cn2c(=O)[nH]c3cnc(-c4ccccc4[S+](C)[O-])nc32)cc1 (stereo not shown) [Compound I-86, 9-(4-(1-methyl-4-(trifluoromethyl)-1H-imidazol-2-yl)benzyl)-2-(2-(methylsulfinyl)phenyl)-7,9-dihydro-8H-purin-8-one]",5.70 to 6.70

row,SMILES,pIC50
1,"CC(C)c1ncccc1-c1ncc2[nH]c(=O)n(Cc3ccc(-c4nc(C(F)F)cn4C)cc3)c2n1 [Compound I-87, 9-(4-(4-(difluoromethyl)-1-methyl-1H-imidazol-2-yl)benzyl)-2-(2-isopropylpyridin-3-yl)-7,9-dihydro-8H-purin-8-one]",6.70 to 7.30
2,"O=c1[nH]c2cnc(-c3cccnc3OC(F)F)nc2n1Cc1ccc(-n2ccc(F)n2)cc1 [Compound I-88, 2-(2-(difluoromethoxy)pyridin-3-yl)-9-(4-(3-fluoro-1H-pyrazol-1-yl)benzyl)-7,9-dihydro-8H-purin-8-one]",5.70 to 6.70
3,"O=c1[nH]c2cnc(-c3ccccc3OC(F)F)nc2n1Cc1ccc(-n2ccc(F)n2)cc1 [Compound I-89, 2-(2-(difluoromethoxy)phenyl)-9-(4-(3-fluoro-1H-pyrazol-1-yl)benzyl)-7,9-dihydro-8H-purin-8-one]",5.70 to 6.70
4,"CN(C)c1ccccc1-c1ncc2[nH]c(=O)n(Cc3ccc(-c4nc(C(F)(F)F)cn4C)cc3)c2n1 [Compound I-90, 2-(2-(dimethylamino)phenyl)-9-(4-(1-methyl-4-(trifluoromethyl)-1H-imidazol-2-yl)benzyl)-7,9-dihydro-8H-purin-8-one]",> 7.30
5,"Cc1cccc(-c2ncc3[nH]c(=O)n(Cc4ccc(-n5cccn5)cc4)c3n2)c1C(C)C [Compound I-91, 9-(4-(1H-pyrazol-1-yl)benzyl)-2-(2-isopropyl-3-methylphenyl)-7,9-dihydro-8H-purin-8-one]",> 7.30
6,"COc1cccc(-c2ncc3[nH]c(=O)n(Cc4ccc(-n5cccn5)cc4)c3n2)c1C(C)C [Compound I-92, 9-(4-(1H-pyrazol-1-yl)benzyl)-2-(2-isopropyl-3-methoxyphenyl)-7,9-dihydro-8H-purin-8-one]",5.70 to 6.70
7,"CC(C)c1c(Cl)cccc1-c1ncc2[nH]c(=O)n(Cc3ccc(-n4cccn4)cc3)c2n1 [Compound I-93, 9-(4-(1H-pyrazol-1-yl)benzyl)-2-(3-chloro-2-isopropylphenyl)-7,9-dihydro-8H-purin-8-one]",6.70 to 7.30
8,"O=c1[nH]c2cnc(-c3ccccc3C3CC3)nc2n1Cc1ccc(-n2cccn2)cc1 [Compound I-94, 9-(4-(1H-pyrazol-1-yl)benzyl)-2-(2-cyclopropylphenyl)-7,9-dihydro-8H-purin-8-one]",> 7.30
9,"O=c1[nH]c2cnc(-c3cc(Cl)ccc3C3CC3)nc2n1Cc1ccc(-n2cccn2)cc1 [Compound I-95, 9-(4-(1H-pyrazol-1-yl)benzyl)-2-(5-chloro-2-cyclopropylphenyl)-7,9-dihydro-8H-purin-8-one]",> 7.30
10,"CC(C)c1cccc(F)c1-c1ncc2[nH]c(=O)n(Cc3ccc(-n4cccn4)cc3)c2n1 [Compound I-96, 9-(4-(1H-pyrazol-1-yl)benzyl)-2-(2-fluoro-6-isopropylphenyl)-7,9-dihydro-8H-purin-8-one]",> 7.30
11,"O=c1[nH]c2cnc(-c3cc(C(F)(F)F)ccc3C3CC3)nc2n1Cc1ccc(-n2cccn2)cc1 [Compound I-97, 9-(4-(1H-pyrazol-1-yl)benzyl)-2-(2-cyclopropyl-5-(trifluoromethyl)phenyl)-7,9-dihydro-8H-purin-8-one]",5.70 to 6.70
12,"CCOC(=O)c1cc(C)nn1-c1ccc(Cn2c(=O)[nH]c3cnc(-c4ccccc4C4CC4)nc32)cc1 [Compound I-99, ethyl 1-(4-((2-(2-cyclopropylphenyl)-8-oxo-7,8-dihydro-9H-purin-9-yl)methyl)phenyl)-3-methyl-1H-pyrazole-5-carboxylate]",> 7.30
13,"Cn1cc(C(F)(F)F)nc1-c1ccc(Cn2c(=O)n(C3CC3)c3cnc(-c4ccccc4C4CC4)nc32)cc1 [Compound I-100, 7-cyclopropyl-2-(2-cyclopropylphenyl)-9-(4-(1-methyl-4-(trifluoromethyl)-1H-imidazol-2-yl)benzyl)-7,9-dihydro-8H-purin-8-one]",> 7.30
14,"Cn1cc(C(F)(F)F)nc1-c1ccc(Cn2c(=O)n(C3CC3)c3cnc(-c4cccnc4C4CC4)nc32)cc1 [Compound I-101, 7-cyclopropyl-2-(2-cyclopropylpyridin-3-yl)-9-(4-(1-methyl-4-(trifluoromethyl)-1H-imidazol-2-yl)benzyl)-7,9-dihydro-8H-purin-8-one]",> 7.30
15,"CC(C)c1ccccc1-c1ncc2[nH]c(=O)n(Cc3ccc(-n4ncc5c4CNC5)cc3)c2n1 [Compound I-102, 9-(4-(5,6-dihydropyrrolo[3,4-c]pyrazol-1(4H)-yl)benzyl)-2-(2-isopropylphenyl)-7,9-dihydro-8H-purin-8-one]",5.70 to 6.70
